From patent publication EP0335902B1, “MONOMERIC PHTHALOCYANINE REAGENTS” (BRITISH TECHNOLOGY GROUP USA INC., priority 1986, dated 1988)
Like-named read-outs stand apart in the source and are kept apart here.

Legend:
[1] = tested on: antimorphine monoclonal antibody; test: competition experiment with antimorphine monoclonal antibody and tritium-labeled morphine (relative immunoaffinity); format: binding
Experimental: The relative immunoaffinity of morphine, the amino morphine analog, and the amino-morphine derivative of mono-PABA-sulfonyl aluminum phthalocyanine disulfonate was determined in a competition experiment with antimorphine monoclonal antibody and tritium-labeled morphine.

[2] = fluorescence and UV-VIS spectroscopy of phthalocyanine derivatives; format: physicochemical
Description: As a family of chromophores the metallophthalocyanines are characterized by a very narrow and strong absorption in the red envelope centered around 670 nm (Eo=230,000) and a broad and less intense absorption (Eo=60,000) at around 350 nm.
It is contemplated that other metal atoms (M) with +3 valences or higher may take on an axial ligand(s) in the phthalocyanine macrocycle, thereby conferring a similar resistance to aggregation in aqueous solution. For use as fluorescent species, the metal should be diamagnetic and have a lower atomic weight than that of […], so as to avoid a heavy-atom quenching effect; suitable metal atoms for the latter purpose include aluminum, silicon, phosphorus, gallium, germanium, and tin. […] Both processes give rise to radiationless deactivation of the excited state and serve to decrease the fluorescent quantum yield.
The ultimate sensitivity of a fluorogenic enzyme assay is determined by the spectral properties of the generated fluorophore.

[3] = solubility of aluminum phthalocyanines in water and solvents; settings: for solubility in polar, protic solvents such as methanol: effect of axial ligand L
Description: The following "R" substituents (R₁ and/or R₂) bound to the phthalocyanine macrocycle 1 can serve as suitable water-solubilizing moieties: sulfonic acid groups (-SO₃H), sulfonate groups (-SO₃⁻, X⁺), carboxylic acid groups (-CO₂H), carboxylate groups (-CO₂⁻, X⁺), phosphoric acid groups (-PO₄H₂), phosphate groups (-PO₄⁻⁻, 2X⁺), phosphonate groups (-PO₃H or -PO₃⁻, X⁺), hydroxy or phenoxy groups (-OH), amino groups (-NH₂), and ammonium and pyridinium groups (-NR₄⁺, X⁻).
To enhance water solubility, L should be -OZ or -NZ₂ wherein Z is selected from among hydrogen, alkyl, acyl, and silyl groups, the latter three preferably being charged.

[4] = λmax 678.5 nm, in chloronaphthalene; cited from earlier work
[5] = format: physicochemical
Experimental: The phthalocyanines are thermally stable, and are often purified by sublimation at temperatures greater than 400°C. Chemically, the phthalocyanines are resistant to acidic or basic hydrolysis, oxidation, and reduction.

Compound: 3-(4-aminobutyl)morphine [amino morphine]
- Relative Affinity ([1]; relative affinity of antimorphine monoclonal antibody for competitor versus tritium-labeled morphine): 1

Compound: [OH][Al]1[n]2c3c4ccccc4c2N=C2N=C(N=c4c5ccccc5c([n]41)=NC1=NC(=N3)c3ccccc31)c1ccccc12 [aluminum phthalocyanine, reference compound]
- Stokes shift [2]: 330 nm
- solubility in water ([3]; water): poorly soluble in water

Compound: CN1CC[C@]23c4c5ccc(O)c4O[C@H]2[C@@H](O)C=C[C@H]3[C@H]1C5 [morphine, reference compound]
- Relative Affinity [1]: 1

Compound: copper(II)phthalocyanine trisulfonate [reference compound]
- fluorescence quantum yield relative to aluminum(III)phthalocyanine trisulfonate ([2]; comparative example): more than 200 times less

Compound: [OH][Al]1[n]2c3c4ccccc4c2N=C2N=C(N=c4c5ccccc5c([n]41)=NC1=NC(=N3)c3ccccc31)c1ccccc12 [hydroxyaluminum phthalocyanine]
- solubility in polar, protic solvents such as methanol [3]: soluble in polar, protic solvents such as methanol

Compound: c1ccc2c(c1)C1=NC2=Nc2c3ccccc3c3[n]2[Cu][n]2c(c4ccccc4c2=NC2=NC(=N3)c3ccccc32)=N1 [compound 9, Copper phthalocyanine]
- molar absorptivity ε [4]: 218,500

Compound: aluminum phthalocyanine trisulfonate
- Stokes shift [2]: 335 nm
- fluorescence emission lifetime [2]: 5 ns
- polarization coefficient [2]: 0.005
- quantum yield when aggregated ([2]; aggregated): < 0.02
- quantum yield when aggregated, of its original value ([2]; aggregated): less than 4%
- emission wavelength ([2]; excitation at 350 nm): 680 nm
- solubility in water [3]: high water solubility
- photochemical stability [5]: photochemically inert

Compound: [Cl][Al]1[n]2c3c4ccccc4c2/N=C2N=C(/N=c4/c5ccccc5/c([n]41)=N/C1=NC(=N\3)/c3ccccc31)c1ccccc1\2 [chloraluminum phthalocyanine]
- solubility in polar, protic solvents such as methanol [3]: but not chloraluminum phthalocyanine is soluble in polar, protic solvents
